Molecular target: T1, recombinant mouse NPY5-receptor (mNPY5) (Mus musculus, UniProt O70342)
T1 construct: The full-length cDNA encoding the mouse NPY5 (mNPY5) receptor was amplified from mouse brain cDNA; expressed in transfected cells; membrane preparation
T1 sequence (O70342 1-466): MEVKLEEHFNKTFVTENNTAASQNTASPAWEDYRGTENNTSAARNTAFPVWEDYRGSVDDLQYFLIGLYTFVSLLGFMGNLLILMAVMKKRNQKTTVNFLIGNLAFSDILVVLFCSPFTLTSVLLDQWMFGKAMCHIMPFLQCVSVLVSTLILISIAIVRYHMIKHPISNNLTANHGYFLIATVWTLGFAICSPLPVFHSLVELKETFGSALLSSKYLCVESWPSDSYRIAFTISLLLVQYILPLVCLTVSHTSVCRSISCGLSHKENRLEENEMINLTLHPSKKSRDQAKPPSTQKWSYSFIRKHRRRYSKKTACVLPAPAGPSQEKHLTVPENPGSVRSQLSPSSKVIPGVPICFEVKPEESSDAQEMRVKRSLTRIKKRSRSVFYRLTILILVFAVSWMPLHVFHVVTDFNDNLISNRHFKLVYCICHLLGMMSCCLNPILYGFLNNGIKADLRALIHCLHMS
Assay: Radioligand competition binding
Conditions: HEK293 membranes expressing mNPY5; displacement of 100 pM [125I]labeled PYY; 1 h at 22° C.; read-out: NPY5-R (mouse) IC50
Excerpt: The full-length cDNA encoding the mouse NPY5 (mNPY5) receptor was amplified from mouse brain cDNA using specific primers, designed based on the published sequence, and Pfu DNA-Polymerase. The amplification product was subcloned into the mammalian expression vector pcDNA3 using Eco RI and XhoI restriction sites. Positive clones were sequenced and one clone, encoding the published sequence was selected for generation of stable cell clones. The sequence is published in Borowsky B., et al., “Molecular Biology and Pharmacology of Multiple NPY Y5 Receptor Species Homologs”, Regul. Pept. 75-76:45-53 (1998).
Human embryonic kidney 293 (HEK293) cells were transfected with 10 μg mNPY5 DNA using the lipofectamine reagent. Two days after transfection, geneticin selection (1 mg/ml) was initiated and several stable clones were isolated. One clone was further used for pharmacological characterization.
Human embryonic kidney 293 cells (HEK293), expressing recombinant mouse NPY5-receptor (mNPY5) were broken by three freeze/thawing cycles in hypotonic Tris buffer (5 mM, pH 7.4, 1 mM MgCl2), homogenized and centrifuged at 72,000×g for 15 min. The pellet was washed twice with 75 mM Tris buffer, pH 7.4, containing 25 mM MgCl2 and 250 mM sucrose, 0.1 mM phenylmethylsulfonylfluoride and 0.1 mM 1,10-pheneanthrolin, resuspended in the same buffer and stored in aliquots at −80° C. Protein was determined according to the method of Lowry using bovine serum albumine (BSA) as a standard. […]

Row | SMILES | IC50
1 | O=C(c1cnc(Nc2cccc(C(F)(F)F)c2)s1)c1ccccc1Cl [Example 29, (2-Chloro-phenyl)-[2-(3-trifluoromethyl-phenylamino)-thiazol-5-yl]-methanone] | 8 nM
2 | N#Cc1cccc(Nc2ncc(C(=O)c3ccc(F)cc3)s2)c1 [Example 8, 3-[5-(4-Fluoro-benzoyl)-thiazol-2-ylamino]-benzonitrile] | 66 nM
3 | CC(=O)c1cccc(Nc2ncc(C(=O)c3ccccc3C)s2)c1 [Example 61, 1-{3-[5-(2-Methyl-benzoyl)-thiazol-2-ylamino]-phenyl}-ethanone] | 86 nM

Reference: patent publication US7253197B2, “Aminothiazole derivatives” (Hoffmann-La Roche Inc., priority 2002, dated 2007)
